Test results reported in ChEMBL document CHEMBL6087388, “Hydrogen peroxide responsive theranostics for cancer-selective activation of DNA alkylators and real-time fluorescence monitoring in living cells” (Eur J Med Chem, 2024).

How the values were obtained:
MCF-10A [1] = assay: Induction of DNA damage in human MCF-10A cells at 5 uM incubated for 48 hrs by Alkaline comet based EVOS digital inverted microscopic analysis; assay type: toxicity, cell-based
[2] = Drug localization in mitochondria of human MDA-MB-468 cells assessed as blue fluorescence at 5 uM incubated for 2 hrs by MitoTracker Red CMXRos based confocal microscopic analysis; assay type: ADME; details: mda-mb-468, 2 h
[3] = Drug localization in nucleus of human MDA-MB-468 cells assessed as accumulation of compound in nucleus at 5 uM incubated for 0.5 hrs and measured after […] by SYTO 9 or Hoechst 33342 staining based confocal microscopic analysis; assay type: ADME, subcellular; details: mda-mb-468, 2 h
[4] = Photophysical property of the compound assessed as relative quantum yield at 2 uM in PBS and DMSO relative to quinine sulfate; assay type: physicochemical; details: buffer
[5] = Drug localization in mitochondria of human MDA-MB-468 cells assessed as accumulation of compound in mitochondria at 5 uM incubated for 0.5 hrs and measured after […] by MitoTracker Red CMXRos based confocal microscopic analysis; assay type: ADME; details: mda-mb-468, 2 h
[6] = Drug localization in nucleus of human MDA-MB-468 cells assessed as accumulation of compound in nucleus at 5 uM pretreated with paraquat for 10 hrs followed by compound addition and measured after […] by SYTO 9 or Hoechst 33342 staining based confocal microscopic analysis; assay type: ADME, subcellular; details: mda-mb-468, 10 h
[7] = Drug localization in mitochondria of human MDA-MB-468 cells assessed as fluorescence at 5 uM pretreated with paraquat for […] by MitoTracker Red CMXRos based confocal microscopic analysis; assay type: ADME; details: time 1.5 hrs
MCF-10A [8] = assay: Induction of DNA damage in human MCF-10A cells at 10 uM incubated for 48 hrs by Alkaline comet based EVOS digital inverted microscopic analysis; assay type: toxicity, cell-based

Structure (SMILES)	Activity (MCF-10A [1])	Drug uptake [2]	Drug uptake [3]	Activity [4]	Drug uptake [5]	Drug uptake [6]	Drug uptake [7]	Activity (MCF-10A [8])
CC1(C)OB(c2ccc(N(CCCl)CCCl)cc2COCc2cn(-c3cc4ccc(O)cc4oc3=O)nn2)OC1(C)C	Non-toxic	Active	Not_active	0.17	–	–	–	–
CC1(C)OB(c2ccc3cc(-n4cc(CCCCCCCCCOCc5cc(N(CCCl)CCCl)ccc5B5OC(C)(C)C(C)(C)O5)nn4)c(=O)oc3c2)OC1(C)C	–	Not_active	Not_active	–	Active	Not_active	Active	Non-toxic
CC1(C)OB(c2ccc3c(c2)Oc2cc(B4OC(C)(C)C(C)(C)O4)ccc2C32OC(=O)c3cc(-n4cc(CCCCCCCCCOCc5cc(N(CCCl)CCCl)ccc5B5OC(C)(C)C(C)(C)O5)nn4)ccc32)OC1(C)C	–	Not_active	Not_active	–	Active	Not_active	Active	–
